From the NIST ThermoML archive (doi:10.1016/j.jct.2008.02.019)

Assays:
[1] = xn = mol fraction of the nth substance listed; settings: 101 kPa, Liquid
[2] = refractive index (Na D-line) (dimensionless); settings: 101.33 kPa, Liquid, Standard Abbe refractometry
[3] = 101.33 kPa, Liquid
[4] = excess molar enthalpy (molar enthalpy of mixing); xn = mol fraction of the nth substance listed; settings: 101 kPa, Liquid, Flow calorimetry

CCCC[n+]1ccc(C)cc1.F[B-](F)(F)F [1-butyl-4-methylpyridinium tetrafluoroborate] + CCCCCO
[1], 318.15 K
Settings | mass density [kg/m3]
x1 = 0.5651 | 1060.4
x1 = 0.6035 | 1072.1
x1 = 0.6715 | 1091.9
x1 = 0.7601 | 1115.3
x1 = 0.8041 | 1126.1
x1 = 0.8616 | 1139.6
x1 = 0.912 | 1150.8

CCCCCO [pentan-1-ol]
[2]
Settings | refractive index
298.15 K | 1.4078
318.15 K | 1.4003

Settings | mass density [kg/m3]
[3], 318.15 K, Vibrating tube method | 796.1

CCCC[n+]1ccc(C)cc1.F[B-](F)(F)F [1-butyl-4-methylpyridinium tetrafluoroborate]
Settings | mass density, [3] [kg/m3] | refractive index, [2]
298.15 K | 1183.49 | 1.4517
318.15 K | 1169.12 | 1.447

CCCC[n+]1ccc(C)cc1.F[B-](F)(F)F [1-butyl-4-methylpyridinium tetrafluoroborate] + O
Settings | excess molar enthalpy [kcal/mol] | mass density [kg/m3]
[1], 298.15 K, x1 = 0.0502 | – | 1060.5
[1], 298.15 K, x1 = 0.1042 | – | 1094.8
[1], 298.15 K, x1 = 0.1512 | – | 1112.7
[1], 298.15 K, x1 = 0.2006 | – | 1126.1
[1], 298.15 K, x1 = 0.2543 | – | 1136.1
[1], 298.15 K, x1 = 0.2948 | – | 1142.4
[1], 298.15 K, x1 = 0.4 | – | 1154.1
[1], 298.15 K, x1 = 0.4913 | – | 1161.5
[1], 298.15 K, x1 = 0.6014 | – | 1168.3
[1], 298.15 K, x1 = 0.7228 | – | 1173.9
[1], 298.15 K, x1 = 0.7493 | – | 1175.1
[1], 298.15 K, x1 = 0.783 | – | 1176.4
[1], 298.15 K, x1 = 0.8449 | – | 1178.7
[1], 298.15 K, x1 = 0.8731 | – | 1179.8
[1], 298.15 K, x1 = 0.9504 | – | 1182.1
[1], 318.15 K, x1 = 0.0327 | – | 1033
[1], 318.15 K, x1 = 0.0994 | – | 1080
[1], 318.15 K, x1 = 0.1505 | – | 1098.7
[1], 318.15 K, x1 = 0.1989 | – | 1111.3
[1], 318.15 K, x1 = 0.236 | – | 1118.6
[1], 318.15 K, x1 = 0.2921 | – | 1127.6
[1], 318.15 K, x1 = 0.3237 | – | 1131.9
[1], 318.15 K, x1 = 0.4169 | – | 1141.3
[1], 318.15 K, x1 = 0.4841 | – | 1146.6
[1], 318.15 K, x1 = 0.6083 | – | 1154.2
[1], 318.15 K, x1 = 0.6715 | – | 1157.5
[1], 318.15 K, x1 = 0.7125 | – | 1159.2
[1], 318.15 K, x1 = 0.7299 | – | 1160
[1], 318.15 K, x1 = 0.8124 | – | 1163
[1], 318.15 K, x1 = 0.8565 | – | 1164.7
[1], 318.15 K, x1 = 0.8888 | – | 1165.8
[4], 298.15 K, x1 = 0.0072 | 0.0249 | –
[4], 298.15 K, x1 = 0.0145 | 0.0473 | –
[4], 298.15 K, x1 = 0.0215 | 0.0679 | –
[4], 298.15 K, x1 = 0.0303 | 0.0908 | –
[4], 298.15 K, x1 = 0.0406 | 0.117 | –
[4], 298.15 K, x1 = 0.0526 | 0.147 | –
[4], 298.15 K, x1 = 0.0659 | 0.177 | –
[4], 298.15 K, x1 = 0.0805 | 0.209 | –
[4], 298.15 K, x1 = 0.0963 | 0.243 | –
[4], 298.15 K, x1 = 0.1144 | 0.278 | –
[4], 298.15 K, x1 = 0.1563 | 0.349 | –
[4], 298.15 K, x1 = 0.1863 | 0.38 | –
[4], 298.15 K, x1 = 0.2196 | 0.407 | –
[4], 298.15 K, x1 = 0.2577 | 0.424 | –
[4], 298.15 K, x1 = 0.2972 | 0.433 | –
[4], 298.15 K, x1 = 0.3449 | 0.433 | –
[4], 298.15 K, x1 = 0.3974 | 0.42 | –
[4], 298.15 K, x1 = 0.4857 | 0.379 | –
[4], 298.15 K, x1 = 0.5954 | 0.32 | –
[4], 298.15 K, x1 = 0.7282 | 0.23 | –
[4], 298.15 K, x1 = 0.8706 | 0.116 | –
[4], 318.15 K, x1 = 0.0097 | 0.0449 | –
[4], 318.16 K, x1 = 0.0226 | 0.0937 | –
[4], 318.17 K, x1 = 0.0382 | 0.145 | –
[4], 318.18 K, x1 = 0.0565 | 0.197 | –
[4], 318.19 K, x1 = 0.0755 | 0.249 | –
[4], 318.2 K, x1 = 0.0949 | 0.293 | –
[4], 318.21 K, x1 = 0.1132 | 0.336 | –
[4], 318.22 K, x1 = 0.1187 | 0.36 | –
[4], 318.23 K, x1 = 0.1414 | 0.402 | –
[4], 318.24 K, x1 = 0.1695 | 0.44 | –
[4], 318.25 K, x1 = 0.2008 | 0.471 | –
[4], 318.26 K, x1 = 0.2346 | 0.499 | –
[4], 318.27 K, x1 = 0.2746 | 0.524 | –
[4], 318.28 K, x1 = 0.3253 | 0.537 | –
[4], 318.29 K, x1 = 0.383 | 0.533 | –
[4], 318.3 K, x1 = 0.441 | 0.517 | –
[4], 318.31 K, x1 = 0.5071 | 0.484 | –
[4], 318.32 K, x1 = 0.5961 | 0.42 | –
[4], 318.33 K, x1 = 0.6778 | 0.34 | –
[4], 318.34 K, x1 = 0.7866 | 0.236 | –
[4], 318.35 K, x1 = 0.9058 | 0.102 | –

CCCC[n+]1ccc(C)cc1.F[B-](F)(F)F [1-butyl-4-methylpyridinium tetrafluoroborate] + CCCO
Settings | excess molar enthalpy [kcal/mol] | mass density [kg/m3]
[1], 298.15 K, x1 = 0.0154 | – | 815.6
[1], 298.15 K, x1 = 0.0271 | – | 827.2
[1], 298.15 K, x1 = 0.2988 | – | 1006.8
[1], 298.15 K, x1 = 0.3987 | – | 1047.4
[1], 298.15 K, x1 = 0.4965 | – | 1079.8
[1], 298.15 K, x1 = 0.5972 | – | 1107.8
[1], 298.15 K, x1 = 0.6889 | – | 1129.1
[1], 298.15 K, x1 = 0.696 | – | 1130.6
[1], 298.15 K, x1 = 0.7812 | – | 1147.9
[1], 298.15 K, x1 = 0.8841 | – | 1165.9
[1], 318.15 K, x1 = 0.0549 | – | 837.6
[1], 318.15 K, x1 = 0.1008 | – | 875.1
[1], 318.15 K, x1 = 0.1969 | – | 939.6
[1], 318.15 K, x1 = 0.3103 | – | 997.6
[1], 318.15 K, x1 = 0.3828 | – | 1027.5
[1], 318.15 K, x1 = 0.4381 | – | 1047.4
[1], 318.15 K, x1 = 0.4534 | – | 1052.4
[1], 318.15 K, x1 = 0.4901 | – | 1064
[1], 318.15 K, x1 = 0.6039 | – | 1095.2
[1], 318.15 K, x1 = 0.6726 | – | 1111.2
[1], 318.15 K, x1 = 0.8248 | – | 1141.4
[1], 318.15 K, x1 = 0.8967 | – | 1156.9
[1], 318.15 K, x1 = 0.9191 | – | 1153.3
[4], 298.15 K, x1 = 0.012 | 0.0315 | –
[4], 298.15 K, x1 = 0.0243 | 0.0516 | –
[4], 298.15 K, x1 = 0.0308 | 0.0719 | –
[4], 298.15 K, x1 = 0.3198 | 0.596 | –
[4], 298.15 K, x1 = 0.3532 | 0.588 | –
[4], 298.15 K, x1 = 0.3908 | 0.579 | –
[4], 298.15 K, x1 = 0.4344 | 0.56 | –
[4], 298.15 K, x1 = 0.4819 | 0.54 | –
[4], 298.15 K, x1 = 0.5374 | 0.505 | –
[4], 298.15 K, x1 = 0.6008 | 0.457 | –
[4], 298.15 K, x1 = 0.6734 | 0.394 | –
[4], 298.15 K, x1 = 0.752 | 0.315 | –
[4], 298.15 K, x1 = 0.8319 | 0.237 | –
[4], 298.15 K, x1 = 0.9181 | 0.138 | –
[4], 318.15 K, x1 = 0.0189 | 0.0927 | –
[4], 318.16 K, x1 = 0.054 | 0.229 | –
[4], 318.17 K, x1 = 0.093 | 0.351 | –
[4], 318.18 K, x1 = 0.1341 | 0.454 | –
[4], 318.19 K, x1 = 0.1775 | 0.543 | –
[4], 318.2 K, x1 = 0.2167 | 0.609 | –
[4], 318.21 K, x1 = 0.2312 | 0.641 | –
[4], 318.22 K, x1 = 0.2581 | 0.67 | –
[4], 318.23 K, x1 = 0.2912 | 0.692 | –
[4], 318.24 K, x1 = 0.331 | 0.708 | –
[4], 318.25 K, x1 = 0.3847 | 0.704 | –
[4], 318.26 K, x1 = 0.4488 | 0.69 | –
[4], 318.27 K, x1 = 0.5249 | 0.65 | –
[4], 318.28 K, x1 = 0.6069 | 0.585 | –
[4], 318.29 K, x1 = 0.6964 | 0.496 | –
[4], 318.3 K, x1 = 0.7815 | 0.405 | –
[4], 318.31 K, x1 = 0.846 | 0.309 | –
[4], 318.32 K, x1 = 0.9043 | 0.197 | –
[4], 318.33 K, x1 = 0.9568 | 0.104 | –
